Experimental findings from ChEMBL document CHEMBL5236636, “Synthesis, anticancer evaluation, and molecular docking studies of thiazolyl-pyrazoline derivatives” (Bioorg Med Chem Lett, 2023) are described below.

Data set [1] concerns A-375. The experiment in a line: Antiproliferative activity against human A-375 cells incubated for 24 hrs by MTT assay. As to conditions: A-375, 24 h. Type of data set: functional, cell-based. A general note: Tetrazolium assays rely on reduction of a dye to a coloured formazan, in cell work by metabolically active cells.
Data set [2] concerns A549. The experiment in a line: Antimetastatic activity against human A549 cells assessed as reduction in MMP-9 expression at 100 uM preincubated with SNP for 3 hrs followed by compound addition and measured after 24 hrs by gelatin zymography. It is filed as functional, cell-based.
The subject of data set [3] is A549. The experiment in a line: Antiinflammatory activity against human A549 cells assessed as reduction in COX-2 expression at 100 uM preincubated with SNP for 3 hrs followed by compound addition and measured after 24 hrs by Western blot analysis. It is filed as functional, cell-based. (In western blotting, separated proteins are transferred to a membrane and probed.)

The test system of data set [4] is A-375. As to the kind of experiment: Antiinflammatory activity against human A-375 cells assessed as reduction in COX-2 expression at 100 uM preincubated with SNP for 3 hrs followed by compound addition and measured after 24 hrs by Western blot analysis. Type of data set: functional, cell-based.
Data set [5] relates to A549. As to the kind of experiment: Antimetastatic activity against human A549 cells assessed as reduction in MMP-2 expression at 100 uM preincubated with SNP for 3 hrs followed by compound addition and measured after 24 hrs by gelatin zymography. It is filed as functional, cell-based.
Data set [6] relates to A-375. The experiment in a line: Antimetastatic activity against human A-375 cells assessed as reduction in MMP-9 expression at 100 uM preincubated with SNP for 3 hrs followed by compound addition and measured after 24 hrs by gelatin zymography. Type of data set: functional, cell-based.
For data set [7], the system named is A549. As to the kind of experiment: Antiproliferative activity against human A549 cells incubated for 24 hrs by MTT assay. It is filed as functional, cell-based. The following applies: A549, 24 h.
Data set [8] can be described thus: Selectivity index, ratio of IC50 for rabbit articular chondrocytes to IC50 for human A-375.
Data set [9] concerns A-375. As to the kind of experiment: Antimetastatic activity against human A-375 cells assessed as reduction in MMP-2 expression at 100 uM preincubated with SNP for 3 hrs followed by compound addition and measured after 24 hrs by gelatin zymography. It is filed as functional, cell-based.
Data set [10] is described as follows: Cytotoxicity against rabbit articular chondrocytes incubated for 24 hrs by MTT assay. Type of data set: toxicity, cell-based, Oryctolagus cuniculus, Chondrocyte.
Data set [11] has as its system A-375. The experiment in a line: Potency index, ratio of erlotinib IC50 to test compound IC50 for human A-375 cells. Type of data set: functional.
Data set [12] relates to A549. As to the kind of experiment: Potency index, ratio of erlotinib IC50 to test compound IC50 for human A549 cells. Type of data set: functional.

Molecules are shown by their SMILES. Calls of active or inactive are those of the source. The rule behind the calls is not given here.

Broadly, the IC50 is the concentration at which inhibition is half-maximal.

As for `COc1ccc(C2=NN(c3nc(-c4ccc(Br)cc4)cs3)C(c3ccc(OCc4ccccc4)c(OC)c3)C2)cc1` (configuration not stated), the IC50 was determined as 20.6 µM with A-375 [1] and 27.3 µM in the data set with A549 [7]. Moreover, the outcome with A549 [2], in the data set on A549 [5], in the data set with A-375 [6] and in the data set on A-375 [9] was inactive. The result in the data set on A549 [3] and with A-375 [4] was Active. Further, the Ratio IC50 in data set [8] is 21.1. In data set [10], this compound showed an IC50 at 24 h of 435 µM.

For `Cc1ccc(C2CC(c3ccccc3)=NN2c2nc(-c3ccc(Br)cc3)cs2)cc1` (configuration not stated), the IC50 with A-375 [1] amounted to 103 µM; in the data set on A549 [7], 126 µM.

For `COc1ccc(C2=NN(c3nc(-c4ccc(Br)cc4)cs3)C(c3ccc(F)cc3)C2)cc1` (configuration not stated), the IC50 with A-375 [1] came out at 16.1 µM; in the data set with A549 [7], 20.3 µM. Moreover, the result in the data set on A549 [2], with A549 [5], in the data set with A-375 [6] and with A-375 [9] was inactive. Further, in the data set with A-375 [4], the result was Active. Besides, the “Ratio IC50” value in the data set with A-375 [11] amounted to 1.7; with A549 [12] it was 1.7; in [8] it was 9.04. This compound registered a half-inhibitory concentration (IC50) at 24 h in data set [10] of 146 µM.

For the compound `COc1ccc(C2=NN(c3nc(-c4ccc(Br)cc4)cs3)C(c3ccc(C)cc3)C2)cc1` (configuration not stated), the IC50 in the data set on A-375 [1] was 20.1 µM; with A549 [7] it was 26.1 µM. For the same compound, the result in the data set with A549 [2], in the data set on A549 [5], in the data set with A-375 [6] and in the data set with A-375 [9] was inactive. Further, the Ratio IC50 in [8] came to 7.53. Also, in data set [10], the 50% inhibitory concentration (IC50) at 24 h turned out to be 151 µM.

For the compound `Clc1ccc(C2CC(c3ccccc3)=NN2c2nc(-c3ccc(Br)cc3)cs2)cc1` (configuration not stated), the IC50 with A-375 [1] amounted to 42.8 µM; in the data set with A549 [7] it was 52 µM.

Consider `C#Cc1cccc(Nc2ncnc3cc(OCCOC)c(OCCOC)cc23)c1` [ERLOTINIB], for which the half-maximal inhibitory concentration (IC50) with A-375 [1] stood at 25.9 µM; in the data set with A549 [7] it was 34.2 µM. The Ratio IC50 in data set [8] was found to be 2.45. The IC50 at 24 h in data set [10] worked out at 63.5 µM.

Consider `COc1cc(C2CC(c3ccccc3)=NN2c2nc(-c3ccc(Br)cc3)cs2)ccc1OCc1ccccc1` (configuration not stated), for which the IC50 in the data set on A-375 [1] amounted to 18.4 µM; in the data set on A549 [7] it was 25.9 µM. The result with A549 [2], with A549 [5], in the data set on A-375 [6] and in the data set on A-375 [9] was inactive. Further, the outcome in the data set on A549 [3] and in the data set with A-375 [4] was Active. Moreover, the Ratio IC50 in data set [8] came out at 19.4. Also, in data set [10], it took 357 µM to reach half-maximal inhibition (IC50 at 24 h).

Take `COc1ccc(C2=NN(c3nc(-c4ccc(Br)cc4)cs3)C(c3ccc(OC)cc3)C2)cc1` (configuration not stated): the IC50 is 45.1 µM in the data set with A-375 [1] and 51.8 µM with A549 [7].

Turning to `COc1ccc(C2=NN(c3nc(-c4ccc(Br)cc4)cs3)C(c3ccc(Br)cc3)C2)cc1` (configuration not stated), the IC50 in the data set with A-375 [1] is 31.6 µM; with A549 [7], 45.7 µM.

For `COc1ccc(C2CC(c3ccccc3)=NN2c2nc(-c3ccc(Br)cc3)cs2)cc1` (configuration not stated), the IC50 came out at 40.5 µM in the data set on A-375 [1] and 37.4 µM in the data set on A549 [7].

Consider `COc1ccc(C2=NN(c3nc(-c4ccc(Br)cc4)cs3)C(c3ccc(Cl)cc3)C2)cc1` (configuration not stated), for which the 50% inhibitory concentration (IC50) was 55.7 µM in the data set on A-375 [1] and 47.8 µM with A549 [7].

As for `Brc1ccc(-c2csc(N3N=C(c4ccccc4)CC3c3ccc(Br)cc3)n2)cc1` (configuration not stated), the IC50 with A-375 [1] was 97.5 µM; in the data set on A549 [7] it was 74.2 µM.
